Assay results as given in ChEMBL document CHEMBL1201862, “PubChem BioAssay data set” (2004).
Active and inactive are the calls of the source.

Experiments:
[1] = molecular target: E3 ubiquitin-protein ligase Mdm2 (Homo sapiens, UniProt Q00987); assay: enhancers of MDM2-luciferase reporter signal, concentration-effect titration, project on inhibitors of MDM2 ubiquitin ligase, cellular assay, luminescent readout, 384-well plate format (AID 1394); format: functional;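 further: MDM2 E3 inhibitors raise luminescence so EC50 is for signal enhancement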
[2] = molecular target: T1, Protein RecA (Mycobacterium tuberculosis, UniProt P9WHJ3); assay: Fluorescence Cell-Free Homogeneous Dose Retest to Identify Inhibitors of RecA-Intein Splicing Activity. [Related pubchem assays (depositor defined):AID2097, AID2223, AID489010, AID492950]; format: functional
T1 sequence (P9WHJ3 whole entry): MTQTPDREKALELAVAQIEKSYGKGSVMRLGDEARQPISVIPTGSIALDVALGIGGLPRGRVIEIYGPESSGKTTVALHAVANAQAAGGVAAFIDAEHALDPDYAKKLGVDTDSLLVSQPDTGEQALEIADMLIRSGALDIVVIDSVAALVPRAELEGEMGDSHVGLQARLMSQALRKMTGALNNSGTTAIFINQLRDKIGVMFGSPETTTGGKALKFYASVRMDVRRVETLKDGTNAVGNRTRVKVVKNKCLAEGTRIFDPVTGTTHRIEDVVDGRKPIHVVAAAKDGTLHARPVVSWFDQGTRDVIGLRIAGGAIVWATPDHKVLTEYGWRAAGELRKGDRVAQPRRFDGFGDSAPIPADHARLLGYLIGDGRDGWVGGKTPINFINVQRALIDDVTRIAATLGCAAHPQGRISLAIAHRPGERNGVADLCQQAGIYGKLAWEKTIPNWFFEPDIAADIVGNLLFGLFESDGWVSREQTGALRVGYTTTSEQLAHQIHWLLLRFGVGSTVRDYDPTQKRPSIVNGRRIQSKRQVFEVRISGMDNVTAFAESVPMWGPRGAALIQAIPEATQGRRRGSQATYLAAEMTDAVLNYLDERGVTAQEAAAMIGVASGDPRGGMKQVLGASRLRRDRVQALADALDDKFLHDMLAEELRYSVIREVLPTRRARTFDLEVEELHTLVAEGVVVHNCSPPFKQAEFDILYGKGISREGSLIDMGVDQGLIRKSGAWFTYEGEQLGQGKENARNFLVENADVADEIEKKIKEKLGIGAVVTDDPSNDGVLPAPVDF

[3] = molecular target: T2, Replicative DNA helicase DnaB (Mycobacterium tuberculosis, UniProt P9WMR3); assay: DnaB intein splicing inhibitors, dose response, biochemical, cell-free fluorescence (AID 449749); format: functional
T2 sequence (P9WMR3 whole entry): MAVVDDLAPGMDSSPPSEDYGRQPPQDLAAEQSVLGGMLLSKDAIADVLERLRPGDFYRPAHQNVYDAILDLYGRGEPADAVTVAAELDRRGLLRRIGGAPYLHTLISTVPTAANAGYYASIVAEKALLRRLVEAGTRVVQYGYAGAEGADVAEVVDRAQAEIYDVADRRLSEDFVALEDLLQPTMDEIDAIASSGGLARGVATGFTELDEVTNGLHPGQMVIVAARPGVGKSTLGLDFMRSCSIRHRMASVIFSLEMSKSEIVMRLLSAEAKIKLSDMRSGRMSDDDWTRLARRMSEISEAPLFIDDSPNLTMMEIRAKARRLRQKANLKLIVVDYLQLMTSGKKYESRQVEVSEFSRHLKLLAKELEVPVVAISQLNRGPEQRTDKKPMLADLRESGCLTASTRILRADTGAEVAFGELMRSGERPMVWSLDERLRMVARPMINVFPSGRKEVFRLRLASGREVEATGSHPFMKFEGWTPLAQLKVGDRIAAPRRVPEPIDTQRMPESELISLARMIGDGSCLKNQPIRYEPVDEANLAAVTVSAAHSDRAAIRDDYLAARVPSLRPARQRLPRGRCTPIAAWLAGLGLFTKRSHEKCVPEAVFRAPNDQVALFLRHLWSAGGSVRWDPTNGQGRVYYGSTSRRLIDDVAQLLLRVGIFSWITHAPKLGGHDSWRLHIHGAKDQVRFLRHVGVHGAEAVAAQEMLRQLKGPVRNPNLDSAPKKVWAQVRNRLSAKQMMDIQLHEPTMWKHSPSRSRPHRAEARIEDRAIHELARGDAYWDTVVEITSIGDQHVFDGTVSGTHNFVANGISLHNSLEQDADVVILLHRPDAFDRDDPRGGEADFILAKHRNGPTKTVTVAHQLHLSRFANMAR

[4] = molecular target: Transthyretin (Homo sapiens, UniProt P02766); assay: Luminescence-based cell-based high throughput dose response assay to identify activators of Transthyretin (TTR) transcription.; format: functional
[5] = P. falciparum late gametocyte killing, dose response, luminescence (AID 1117278); format: functional, cell-based;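 further: gametocytes exposed to compound for 24 hours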
[6] = Jurkat T cell cytotoxicity, dose response, cytotoxicity control for P. falciparum gametocyte viability project, luminescence (AID 1117277); format: functional, cell-based;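 further: potency reflects loss of cellular ATP meaning fewer viable cells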
[7] = control 3'UTR Renilla luciferase suppression, dose response, counter-screen for Shn3 inhibitor project, cell-based, Clone20-Shn3RL, cherry-picked (AID 624133); format: functional
[8] = system: HEK293; assay: inhibitors of LMP1-driven NF-kB reporter, dose response, cell-based, HEK293, luciferase, cherry-pick (AID 588343); format: functional; settings: Homo sapiens
[9] = system: Vero; assay: host cell cytotoxicity of antiviral hits, dose response, cytotoxicity control for West Nile virus antiviral project, secondary assay (AID 1650); format: functional; settings: Chlorocebus sabaeus
[10] = cytotoxicity in HEK-293T cells, dose response, cytotoxicity control for TCR NF-kB inhibitor project, luminescence, T-cell screen hits (AID 489026); format: functional, cell-based;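 further: cells exposed to compound about 14 hours before the viability readout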
[11] = Shn3 3'UTR reporter inhibitors, dose response, cell-based, Clone20 osteoblasts, firefly luciferase, cherry-picked (AID 624132); format: functional;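 further: firefly luciferase luminescence from reporter carrying the Shn3 3'UTR in osteoblasts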
[12] = molecular target: Voltage-gated inwardly rectifying potassium channel KCNH2 (Homo sapiens, UniProt Q12809); assay: hERG protection from proarrhythmic block, potency, dose response, cell-based, thallium flux (AID 2121); format: ADME
Voltage-gated inwardly rectifying potassium channel KCNH2, sequence (Q12809 whole entry): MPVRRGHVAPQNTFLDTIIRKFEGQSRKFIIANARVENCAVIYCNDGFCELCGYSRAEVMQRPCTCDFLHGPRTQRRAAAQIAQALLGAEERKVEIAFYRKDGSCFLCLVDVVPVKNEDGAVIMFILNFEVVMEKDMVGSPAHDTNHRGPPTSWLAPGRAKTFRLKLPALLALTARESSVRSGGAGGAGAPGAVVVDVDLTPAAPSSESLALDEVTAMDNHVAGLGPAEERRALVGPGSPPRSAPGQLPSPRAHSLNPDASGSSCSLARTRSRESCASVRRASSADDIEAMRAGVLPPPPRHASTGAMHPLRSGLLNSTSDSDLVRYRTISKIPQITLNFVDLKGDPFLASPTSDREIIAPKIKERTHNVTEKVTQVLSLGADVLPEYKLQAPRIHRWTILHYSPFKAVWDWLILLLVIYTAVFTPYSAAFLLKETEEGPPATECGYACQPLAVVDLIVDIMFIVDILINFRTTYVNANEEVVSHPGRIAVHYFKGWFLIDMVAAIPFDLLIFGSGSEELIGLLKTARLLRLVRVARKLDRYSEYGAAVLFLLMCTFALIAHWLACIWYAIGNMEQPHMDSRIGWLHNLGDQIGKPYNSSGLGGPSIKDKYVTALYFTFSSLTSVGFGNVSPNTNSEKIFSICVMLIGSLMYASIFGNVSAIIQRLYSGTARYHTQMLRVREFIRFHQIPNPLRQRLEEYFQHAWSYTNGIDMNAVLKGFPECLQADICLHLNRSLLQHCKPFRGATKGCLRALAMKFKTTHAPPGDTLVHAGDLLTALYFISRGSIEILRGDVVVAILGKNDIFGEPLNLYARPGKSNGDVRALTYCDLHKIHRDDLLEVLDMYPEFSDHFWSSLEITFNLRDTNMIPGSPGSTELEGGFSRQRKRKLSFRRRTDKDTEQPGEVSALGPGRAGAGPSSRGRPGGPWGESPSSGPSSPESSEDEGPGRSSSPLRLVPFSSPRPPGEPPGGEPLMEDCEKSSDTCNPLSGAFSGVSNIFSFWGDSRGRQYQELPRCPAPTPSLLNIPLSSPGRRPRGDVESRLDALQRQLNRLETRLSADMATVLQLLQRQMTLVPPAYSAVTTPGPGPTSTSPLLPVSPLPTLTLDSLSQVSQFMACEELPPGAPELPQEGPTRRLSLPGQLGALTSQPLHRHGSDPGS

E3 ubiquitin-protein ligase Mdm2, sequence (Q00987 whole entry): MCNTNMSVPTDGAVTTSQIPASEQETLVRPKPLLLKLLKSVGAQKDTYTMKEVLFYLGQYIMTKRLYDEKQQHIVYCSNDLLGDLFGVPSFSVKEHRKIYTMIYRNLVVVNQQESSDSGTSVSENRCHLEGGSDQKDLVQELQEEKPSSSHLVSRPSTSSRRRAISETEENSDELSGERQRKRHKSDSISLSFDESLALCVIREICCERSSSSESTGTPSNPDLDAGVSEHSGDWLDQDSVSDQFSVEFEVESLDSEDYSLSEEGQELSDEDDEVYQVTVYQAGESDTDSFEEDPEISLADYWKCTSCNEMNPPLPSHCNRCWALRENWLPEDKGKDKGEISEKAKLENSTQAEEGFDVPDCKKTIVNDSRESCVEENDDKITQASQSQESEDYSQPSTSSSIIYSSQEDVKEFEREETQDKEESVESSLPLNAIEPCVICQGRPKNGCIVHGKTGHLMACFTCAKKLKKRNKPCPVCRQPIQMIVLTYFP

In the case of `CC(=O)Nc1ccc(S(=O)(=O)N2CCN=C2SCc2cccnc2)cc1`, the EC50 [1] is reported as 9.39 µM (not active).

For `COc1ccc2[nH]c3c(Cl)ncnc3c2c1`, the EC50 [2] was > 380 µM (inactive), the AC50 [3] was > 380 µM (inactive) and the EC50 [4] was > 167 µM (inactive).

With `NC(=O)C1CCN(C(=O)CN2CCc3ccccc32)CC1` the IC50 [5] was > 109 µM (inactive) and the IC50 [6] was > 83.3 µM (inactive).

For `CS(=O)(=O)c1ccc(Sc2nc3ccccc3s2)c([N+](=O)[O-])c1`, the AC50 [7] was 31.2 µM (active), the AC50 [8] was 4.87 µM (active) and the CC50 [9] was 18.3 µM (active). For the same molecule, the IC50 [10] was 79.5 µM (inactive) and the AC50 [11] was 9.73 µM (active).

In the case of `COc1ccc(C(=O)NNC(=O)C(=O)Nc2ccc(C)c(Cl)c2)cc1`, the EC50 [12] is reported as 60 nM (active).
